Reference: US7115590B1 (University College Cardiff Consultants Limited, priority 1999, dated 2006)
Where two headings read alike, the source gives them in different places.

What was measured:
Hepatitis B Virus = test: Anti-Hepatitis B Virus activity; format: cell-based
Method: Compounds were tested for anti-Hepatitis B Virus activity according to the method described by Jansen, R. et al., Antimicrobial Agents and Chemotherapy, Vol. 37, No. 3, pp. 441–447, 1993, and results are shown in the table below.

[1] = Acid stability, acid-mediated hydrolytic decomposition simulating stomach conditions (HPLC); format: physicochemical; conditions: dilute hydrochloric acid pH 1, 37° C., initial 0.3 mg/ml
Method: Compounds according to the invention were tested for their stability towards acid-mediated hydrolytic decomposition employing a test designed to simulate stomach conditions. Each compound was incubated at an initial concentration of 0.3 mg/ml in dilute hydrochloric acid at pH 1 at 37° C. HPLC was run immediately for t=0 and at intervals up to approximately 24 hours.

[2] = format: in vitro ADME; conditions: normal heparized human plasma, 37° C.
Method: Each compound was incubated in normal heparized human plasma at 37° C. At selected time points duplicate samples were removed and deproteinated by acetonitrile extraction. Drug concentrations were then determined by LC/MS/MS analysis using standard methods.

| IC50 (Hepatitis B Virus; Hepatitis B virus; read-out: IC50 (mM) vs. HBV) | melting point | SMILES | Selectivity Index (Hepatitis B Virus; vs. HBV) | half-life, acid stability [1] | Half-life [2] | IC50 (Hepatitis B Virus; Hepatitis B virus, read-out: IC50 (mM) vs. HBV) |
| --- | --- | --- | --- | --- | --- | --- |
| 980 nM | 195 to 200 °C | Nc1ncnc2c1ncn2[C@@H]1C=C[C@H](CO)C1 (relative stereo) [Example 1, (1R,cis)-4-(6-Amino-9H-purin-9-yl)-2-cyclopentene-1-methanol] | >200 |  |  |  |
|  |  | CCOC(=O)[C@H](Cc1ccccc1)NP(=O)(OC[C@H]1C=C[C@@H](n2cnc3c(N)ncnc32)C1)Oc1ccccc1 (relative stereo) [Example 7] | 5000 | 76 h | 53 h |  |
|  |  | Nc1ncnc2c1ncn2[C@@H]1C=C[C@H](COP(=O)([O-])N[C@@H](Cc2ccccc2)C(=O)[O-])C1.[Na+].[Na+] (relative stereo) [Example 8] | >1800 |  |  |  |
|  |  | COC(=O)C(C)(C)NP(=O)(OC[C@H]1C=C[C@@H](n2cnc3c(N)ncnc32)C1)Oc1ccccc1 (stereo partly drawn) [Example 9] | 5000 |  |  | 2 nM |
